Drawing on PubChem BioAssay (NCI), this text covers TGI for 20 compounds.

Holding throughout (test): growth of human tumour cells (NCI), 48 h
The subject of experiment [1] is COLO 205 colon.
Experiment [2] deals with HL-60(TB) leukemia.
Experiment [3] concerns K-562 leukemia.
Experiment [4] concerns A498 renal.
The subject of experiment [5] is MDA-N.
Experiment [6] concerns HCT-116 colon.
Experiment [7] has as its system SF-268 CNS.
Experiment [8] concerns SR leukemia.
Experiment [9] has as its system NCI-H226 lung.
Experiment [10] relates to SK-MEL-5 melanoma.
Experiment [11] relates to T-47D breast.
In experiment [12] the test system is 786-0 renal.
Experiment [13] deals with MOLT-4 leukemia.
Experiment [14] relates to BT-549 breast.
The test system of experiment [15] is SK-MEL-2 melanoma.

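Exposure lasted 48 hours, with cells grown in 96-well plates and compounds tested at five concentrations. At the TGI there is no net growth.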

Turning to `CCOC(=O)N1CCN(c2c(C)nc(C)[nH]c2=O)CC1`, the TGI in experiment [1], in [2], in experiment [3], in [4], in experiment [5] and in experiment [6] was above 100 µM in each case. Also, the TGI in [7], in [8], in experiment [9], in experiment [10], in experiment [11] and in experiment [12] was above 100 µM in each case. For the same compound, the TGI in experiment [13] and in [14] was above 100 µM throughout.

As to `O=c1[nH]c(=O)n(C2CC(O)C(CO)O2)cc1OCCc1ccccc1` (stereo not drawn), the TGI in [1], in experiment [2], in [3], in experiment [5], in experiment [6] and in [7] was above 100 µM in each case. Also, the TGI in experiment [8], in experiment [9], in experiment [10], in [11], in [12] and in experiment [13] was above 100 µM in each case. Further, the TGI in [14] is above 100 µM.

Consider `CCSc1c(C)c2c(n(Cc3ccc(OC)cc3)c1=O)Cc1ccccc1C2`, for which the TGI is 66 µM in experiment [15]; above 100 µM in [1]; 31.6 µM in experiment [2]; 60.9 µM in experiment [3]; above 100 µM in experiment [5]; 32.5 µM in experiment [6]. Further, the TGI in experiment [7] was above 100 µM; in experiment [8], 21.3 µM; in experiment [9], above 100 µM; in experiment [10], 77.4 µM; in [11] it was above 100 µM; in [12], 28.9 µM. The TGI in experiment [13] was 14.8 µM; in experiment [14], 93.4 µM.

For the compound `N#Cc1nc(CSCc2ccccc2)oc1N`, the TGI in experiment [15], in [1], in experiment [4], in experiment [5], in experiment [6] and in [7] was above 100 µM in each case. For the same compound, the TGI in experiment [8], in experiment [9], in [11], in experiment [12], in experiment [13] and in [14] was above 100 µM each time.

Take `C=C(C)[C@@H]1C[C@H]2O[C@](O)(C(=C)CC(=O)/C=C(/C)C[C@@H]3OC(=O)[C@]24O[C@@H]34)[C@H]1O`: the TGI in experiment [15], in experiment [1], in experiment [3], in experiment [4], in experiment [5] and in experiment [6] was above 100 µM in each case. For the same compound, the TGI in experiment [7], in experiment [8], in [9], in experiment [10], in [11] and in experiment [12] was above 100 µM in each case. The TGI in experiment [13] and in experiment [14] was above 100 µM each time.

As to `CSc1ccccc1P(c1ccccc1SC)c1ccccc1SC`, the TGI in experiment [15], in experiment [3], in [4], in experiment [5], in [6] and in experiment [7] was above 100 µM throughout. Further, the TGI in [8], in [9], in experiment [10], in [11], in experiment [12] and in [13] was above 100 µM each time. For the same compound, the TGI in [14] was above 100 µM.

For `C[C@@]12c3c4ccc(C=O)c3Oc3ccc(C=O)c(c31)Oc1c(C=O)ccc(c12)O4`, the TGI in experiment [15], in experiment [1], in experiment [3], in [4], in [5] and in [6] was above 100 µM throughout. For the same compound, the TGI in experiment [7], in [8], in experiment [9], in experiment [10], in experiment [11] and in experiment [12] was above 100 µM throughout. Moreover, the TGI in [13] and in experiment [14] was above 100 µM in each case.

On to `CC1(C)OCC2(CO1)CSCCCSCC1(COC(C)(C)OC1)CSCCCSC2`, for which the TGI in experiment [1], in experiment [2], in experiment [3], in [5], in experiment [6] and in experiment [7] was above 100 µM in each case. For the same compound, the TGI in experiment [8], in experiment [10], in [11], in experiment [12], in [13] and in [14] was above 100 µM throughout.

Turning to `O=C1CSC(/C=C/c2ccccc2)N1c1ccc(-c2ccc(-n3c(-c4ccccc4)nc4ccccc4c3=O)cc2)cc1` (stereo not drawn), the TGI in [15] was 38.6 µM; in experiment [1], 36.6 µM; in experiment [2] it was above 100 µM; in experiment [3], above 100 µM; in experiment [4], above 100 µM; in [5], 67.9 µM. The TGI was above 100 µM in [7]; above 100 µM in experiment [8]; 27.7 µM in experiment [10]; above 100 µM in experiment [11]; 29.6 µM in experiment [12]; above 100 µM in experiment [13]. This compound also showed a TGI in [14] of 39.2 µM.

For the compound `O=C(O)c1nc2cc(C(F)(F)F)ccc2nc1Nc1ccc(Cl)c(Cl)c1`, the TGI in [15] was 8.25 µM; in experiment [1] it was 30.2 µM; in experiment [3], above 100 µM; in [4] it was 31.1 µM; in experiment [5], 69.2 µM; in experiment [6], 21.1 µM. In addition, the TGI was found to be 36.4 µM in [7]; 96.3 µM in [8]; 34 µM in experiment [9]; 52.6 µM in [10]; 36.8 µM in [11]; 29.3 µM in [12]. In experiment [14], this compound yielded a TGI of 27.5 µM.

Consider `CCOC(=O)[C@@H]1C[C@H]1c1ccc(O)c(O)c1`, for which the TGI is 61.5 µM in experiment [15]; above 100 µM in [1]; 51.3 µM in experiment [3]; 37.8 µM in [5]; 28.6 µM in experiment [6]; above 100 µM in experiment [7]. The TGI in experiment [8] is above 100 µM; in [9], above 100 µM; in experiment [10] it was 31.3 µM; in experiment [11], 88.1 µM; in [12], above 100 µM; in experiment [13], above 100 µM. The same compound showed a TGI in experiment [14] above 100 µM.

On to `COc1ccc(N)c(C(O)CCNC(C)=O)c1` (stereo not drawn), for which the TGI in experiment [15], in experiment [1], in experiment [2], in experiment [4], in [5] and in experiment [6] was above 100 µM throughout. Besides, the TGI in experiment [7], in experiment [8], in [9], in experiment [10], in experiment [11] and in experiment [12] was above 100 µM each time. Besides, the TGI in [13] and in [14] was above 100 µM in each case.

For `COc1ccc(C2=C(Cl)c3cc(OC)c(OC)cc3C2=O)cc1OC`, the TGI in experiment [15] is 28 µM; in [1], 16.2 µM; in experiment [2], above 100 µM; in [4], 32 µM; in experiment [5], 38.3 µM; in experiment [6], 15.2 µM. The TGI in [7] was 35.9 µM; in [8] it was above 100 µM; in experiment [9] it was above 100 µM; in experiment [10], 31.7 µM; in [11], 10.9 µM; in experiment [12], 10.7 µM. Further, the results for the TGI in [13] and in experiment [14] were above 100 µM and 29.5 µM, respectively.

As for `COC(=O)c1ccc(Oc2nc3ccccc3nc2-c2cccs2)cc1`, the TGI in experiment [15] was above 100 µM; in experiment [1] it was above 100 µM; in [2] it was above 100 µM; in [5] it was above 100 µM; in experiment [6], above 100 µM; in [7] it was 66 µM. Besides, the TGI in experiment [8], in [10], in experiment [11], in [12], in experiment [13] and in experiment [14] was above 100 µM each time.

Regarding `Nc1ccc(-c2ncc3cc(-c4cccc(-c5cc6cnc(-c7ccc(N)cc7)nc6c6ccccc56)c4)c4ccccc4c3n2)cc1`, the TGI in experiment [15], in [1], in experiment [3], in [4], in [5] and in experiment [6] was above 100 µM throughout. In addition, the TGI in experiment [7], in [8], in experiment [9], in [10], in experiment [11] and in [12] was above 100 µM in each case. The TGI in experiment [13] and in experiment [14] was above 100 µM in each case.

For `COC(=O)c1ccccc1/C=C1/Cc2cccc(C)c2C1=O`, the TGI in [1], in experiment [2], in experiment [3], in experiment [4], in [5] and in [6] was above 100 µM in each case. Moreover, the TGI in experiment [7], in experiment [8], in experiment [9], in experiment [10], in experiment [11] and in experiment [12] was above 100 µM in each case. The TGI in experiment [13] and in experiment [14] was above 100 µM each time.

In the case of `C[C@]12CCC3c4ccc(O)cc4CC[C@H]3C1CC(=O)N(N)C2=O` (stereo partly drawn), the TGI in experiment [1], in experiment [2], in experiment [3], in [4], in experiment [5] and in [6] was above 100 µM each time. Besides, the TGI in [7], in experiment [8], in experiment [9], in experiment [10], in experiment [11] and in [12] was above 100 µM throughout. Further, the TGI in experiment [13] and in experiment [14] was above 100 µM in each case.

As to `c1cc(-c2csc(-c3ccsc3)c2)cs1`, the TGI in experiment [1], in [2], in experiment [3], in experiment [4], in experiment [5] and in experiment [6] was above 100 µM throughout. For the same compound, the TGI is above 100 µM in [7]; above 100 µM in experiment [8]; 83.2 µM in experiment [9]; above 100 µM in experiment [10]; above 100 µM in [11]; above 100 µM in experiment [12]. In addition, the TGI in [13] and in [14] was above 100 µM each time.

`O=C(O)CN=C(C(=NCC(=O)O)c1ccccc1)c1ccccc1`: the TGI in experiment [15], in [1], in experiment [3], in [4], in [5] and in experiment [6] was above 100 µM throughout. The TGI in [7], in [8], in experiment [9], in experiment [11], in experiment [12] and in experiment [13] was above 100 µM throughout. Further, the TGI in [14] is above 100 µM.

`O=C(c1ccco1)C1CC(c2ccc3ccccc3c2O)=NN1` (stereo not drawn): the TGI in [15], in experiment [1], in experiment [3], in experiment [4], in experiment [5] and in experiment [6] was above 100 µM throughout. The TGI in experiment [7], in [8], in [9], in [10], in [11] and in experiment [12] was above 100 µM in each case. The TGI in [13] and in experiment [14] was above 100 µM throughout.
